Columns and labels:
[1] = target: T1, human H3 receptor (Homo sapiens, UniProt Q9Y5N1); test: Human H3 radioligand binding ([3H]-N-alpha-methylhistamine, CHO cell membranes); settings: Human H3 binding constant, class symbols; read-out: hH3 Ki
T1 construct: expressed in transfected cells
Procedure: (§1) Methods: CHO cells stably expressing the human H3 receptor (GenBank: NM_007232) were harvested and cell pellets were frozen (−80° C.). Cell pellets were resuspended in 5 mM Tris-HCl, pH 7.5 with 5 nM EDTA and a cocktail of protease inhibitors (Complete Protease Inhibitor Tablets, Roche Diagnostics). Cells were disrupted using a polytron cell homogenizer and the suspension was centrifuged at 1000×g for 10 minutes at 4° C. The pellet was discarded and the supernatant centrifuged at 40,000×g for 30 min at 4° C. This membrane pellet was washed in membrane buffer containing 50 mM Tris-HCl, pH 7.5 with 0.6 mM EDTA, 5 mM MgCl2 and protease inhibitors, recentrifuged as above and the final pellet resuspended in membrane buffer plus 250 mM sucrose and frozen at −80° C.
(§2) Radioligand Binding. Membranes were resuspended in 50 mM Tris HCl (pH 7.4), 5 mM MgCl2, 0.1% BSA. The membrane suspensions (10 μg protein per well) were incubated in a 96 well microtiter plate with [^3H]-N-alpha-methylhistamine (approximately 1 nM final concentration), test compounds at various concentrations (0.01 nM-30 μM) and scintillation proximity beads (Perkin Elmer, FlashBlueGPCR Scintillating Beads) in a final volume of 80 μl for 4 hours at room temperature, protected from light. Non-specific binding was determined in the presence of 10 μM clobenpropit. Radioligand bound to receptor, and therefore in proximity to the scintillation beads, was measured using a MicroBeta scintillation counter.

[2] = target: T2, rat histamine H3 receptor (Rattus norvegicus, UniProt Q9QYN8); test: Rat H3 radioligand binding ([3H]-N-alpha-methylhistamine, CHO-A3 cell membranes); settings: Rat H3 binding constant, class symbols; read-out: rH3 Ki
T2 construct: encoding the entire 445-amino-acid rat histamine H3 receptor; expressed in transfected cells
T2 sequence (Q9QYN8 whole entry): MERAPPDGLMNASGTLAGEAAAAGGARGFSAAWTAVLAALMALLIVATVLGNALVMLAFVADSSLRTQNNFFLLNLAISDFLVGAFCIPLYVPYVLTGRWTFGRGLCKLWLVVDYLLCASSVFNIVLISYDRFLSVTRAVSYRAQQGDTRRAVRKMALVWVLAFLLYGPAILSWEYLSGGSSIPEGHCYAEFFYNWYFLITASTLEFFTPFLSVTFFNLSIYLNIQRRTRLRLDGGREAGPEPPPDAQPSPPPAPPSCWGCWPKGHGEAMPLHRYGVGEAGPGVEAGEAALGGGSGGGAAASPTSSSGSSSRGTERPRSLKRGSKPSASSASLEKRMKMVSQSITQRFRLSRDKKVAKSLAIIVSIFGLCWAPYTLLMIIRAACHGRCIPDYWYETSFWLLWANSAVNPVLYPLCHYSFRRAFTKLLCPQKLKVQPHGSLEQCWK
Text: as §1, with “Cell line development and membrane preparation. The rat” for “Methods: CHO cells stably expressing the human”, “cDNA was PCR amplified from reverse-transcribed RNA pooled from rat thalamus, hypothalamus, striatum and prefrontal cortex with a sequence corresponding to by #338-1672 of Genbank file #NM_053506, encoding the entire 445-amino-acid rat histamine H3 receptor. This was engineered into the pIRES-neo3 mammalian expression vector, which was stably transfected into the CHO-A3 cell line (Euroscreen, Belgium), followed by clonal selection by limiting dilution. Cells” for “(GenBank: NM_007232)”
as §2

T1 sequence (Q9Y5N1 whole entry): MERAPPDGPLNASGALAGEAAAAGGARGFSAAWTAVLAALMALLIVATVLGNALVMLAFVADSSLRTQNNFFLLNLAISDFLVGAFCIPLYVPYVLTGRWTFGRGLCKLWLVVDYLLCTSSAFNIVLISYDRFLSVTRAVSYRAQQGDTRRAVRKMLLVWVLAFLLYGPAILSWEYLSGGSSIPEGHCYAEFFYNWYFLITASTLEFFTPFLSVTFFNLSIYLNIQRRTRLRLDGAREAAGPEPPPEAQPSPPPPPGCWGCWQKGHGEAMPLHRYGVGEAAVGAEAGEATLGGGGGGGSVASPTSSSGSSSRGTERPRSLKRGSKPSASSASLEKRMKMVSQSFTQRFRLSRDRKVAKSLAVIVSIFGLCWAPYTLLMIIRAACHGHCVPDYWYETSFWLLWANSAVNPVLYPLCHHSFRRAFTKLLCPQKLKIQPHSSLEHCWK

Ki [1]	Ki [2]	melting point	Compound
< 100 nM	< 100 nM	70 to 73 °C	CC(C)n1nc(-c2ccc(Oc3ccc4c(c3)CCN(C3CCC3)CC4)nc2)ccc1=O [Example 29, 6-[6-(3-Cyclobutyl-2,3,4,5-tetrahydro-1H-benzo[d]azepin-7-yloxy)-pyridin-3-yl]-2-isopropyl-2H-pyridazin-3-one]
< 100 nM	< 100 nM	198 to 201 °C	O=C1NN=C(c2ccc3c(c2)CCN(C2CCC2)CC3)C2CCCC12 (stereo not drawn) [Example 42, 4-(3-Cyclobutyl-2,3,4,5-tetrahydro-1H-benzo[d]azepin-7-yl)-2,4a,5,6,7,7a-hexahydro-cyclopenta[d]pyridazin-1-one]
< 100 nM	< 100 nM	223 to 225 °C	O=C1NN=C(c2ccc3c(c2)CCN(C2CCC2)CC3)C2CCCCC12 (stereo not drawn) [Example 44, 4-(3-Cyclobutyl-2,3,4,5-tetrahydro-1H-benzo[d]azepin-7-yl)-4-a,5,6,7,8,8a-hexahydro-2H-phthalazin-1-one]
100 to 1000 nM	100 to 1000 nM	177 to 179 °C	Cn1nc(-c2ccc(C(=O)N3CCN(C4CCCC4)CC3)cc2)ccc1=O [Example 46, 6-[4-(4-Cyclopentyl-piperazine-1-carbonyl)-phenyl]-2-methyl-2H-pyridazin-3-one]
100 to 1000 nM	100 to 1000 nM	131 to 132 °C	CC(C)N1CCN(C(=O)c2ccc(-c3ccc(=O)n(C)n3)cc2)CC1 [Example 47, 6-[4-(4-Isopropyl-piperazine-1-carbonyl)-phenyl]-2-methyl-2H-pyridazin-3-one]
< 100 nM	< 100 nM	62 to 66 °C	O=C(c1ccc(-c2ccc(=O)[nH]n2)cc1)N1CCC[C@H]1CN1CCCC1 [Example 50, 6-[4-((S)-2-Pyrrolidin-1-ylmethyl-pyrrolidine-1-carbonyl)-phenyl]-2H-pyridazin-3-one]
< 100 nM	< 100 nM	159 to 161 °C	C[C@@H]1CCCN1CCc1ccc(-c2ccc(=O)[nH]n2)cc1 [Example 51, 6-{4-[2-((R)-2-Methyl-pyrrolidin-1-yl)-ethyl]-phenyl}-2H-pyridazin-3-one]

Source: patent US20110098269A1, “Substituted Pyridazinone Derivatives as Histamine-3 (H3) Receptor Ligands” (Cephalon, Inc., priority 2008, published 2011)
